# Assay results taken from paper PMC8000447, “Assessment of Finite and Infinite Dose In Vitro Experiments in Transdermal Drug Delivery” (Pharmaceutics, 2021).
# Where “and” joins values, the source holds several entries; their conditions need not be identical. Equal entries are not always repeated.
# Test: Penetration assay with finite dosage using vertical Franz diffusion cells
# Assay type: in vitro ADME, pig
# Conditions: finite dose 20 µL in propylene glycol, 24 h, normalized amount, mean ± SD, n = 3
# Method: (§1) A porcine skin membrane was employed for both the permeation and penetration assays. […] The skin was provided by the Department of Cardiology of the Hospital Clinic (Barcelona, Spain). Dorsal unboiled skin (female white/landrace pigs) was prepared: the bristles were removed (A5 Clipper 78005-500, Oster professional, McMinnville, OR, USA) and dermatomed (Dermatome GA630, Aesculap, Tuttlingen, Germany) at 500 ± 50 μm thick. Thickness was verified with a digital micrometer 40EX (Mahr, Göttingen, Germany). Skin biopsies were cut into discs with 2.5 cm diameter. The skin discs were stored until the experiment (at −20 °C).
# OECD guidelines and the published opinions of the Scientific Committee on Cosmetic Products and Non-Food Products (SCCS) were adhered in the penetration protocol. The excised pig skin was placed in a static Franz diffusion cell (Lara Spiral, Couternon, France) (1.86 cm^2 and 3 mL) with the dermis side facing the acceptor chamber. The receptor chamber was filled with receptor fluid. The receptor fluid was the same used in the kinetic assay (Section 2.4). Air bubbles entrapped below the skin were carefully removed and the assembled cells were deposited in a temperature-regulated water bath (Telesystem HP 15, H+P Labortechnik GmgH, Oberschleissheim, Germany) on top of a water-resistant magnetic stirring plate (Variomag 15 and Telemodul, H+P Labortechnik GmgH, Oberschleissheim, Germany). The homogeneity of receptor fluid was maintained by continuously stirring at 700 rpm. The system was thermostatted at 43 ± 1 °C to provide a skin surface temperature of 32 ± 1 °C.
# The integrity and permeability of membranes were evaluated with the trans-epidermal water loss (TEWL) value as detailed in Section 2.3.
# The finite assay protocol was conducted as described in previous studies. Briefly, 20 µL of each API solution was applied to the skin surface in the donor chamber (n = 3). According to the OECD methodology used, penetration studies were performed for 24 h. After the exposure time, the receptor fluid of all the membranes was collected to transfer to a 5 mL volumetric flask. The remaining API solution was removed from skin surface with specific washing procedure (W). Stratum corneum layers were obtained by tape stripping protocol with adhesive tape (D-Squame, Cuderm Corporation, Dallas, TX, USA) applied under controlled pressure (80 g/cm^2). Viable epidermis (E) and the dermis (D) were separated after heating the skin at 80 °C for several seconds. All samples were extracted with adequate solvent (Table 1) and filtered with a 0.45 µm Nylon filter (Cameo, Sigma-Aldrich, St. Louis, MO, USA) before HPLC quantification (Section 2.6).
# The amount permeated in the skin was considered the sum of that in the epidermis, dermis, and receptor fluid. […]
% API detected in dermis (D) [%],% API detected in epidermis (E) [%],% API detected in receptor fluid (RF),% API detected in stratum corneum (SC),SMILES
2.79 ± 0.37,2.92 ± 0.61,53% and 52.68 ± 5.01%,11% and 11.06 ± 1.15%,"CC(C)Cc1ccc(C(C)C(=O)O)cc1 (stereo not drawn) [Ibuprofen, ibuprofen]"
1.41 ± 0.49,5.54 ± 2.41,8.53 ± 3.99%,8.08 ± 2.62%,O=C(O)Cc1ccccc1Nc1c(Cl)cccc1Cl [Diclofenac sodium]

SMILES,% API detected in dermis (D) [%],% API detected in epidermis (E) [%],% API detected in receptor fluid (RF),% API detected in stratum corneum (SC)
"Cn1c(=O)c2c(ncn2C)n(C)c1=O [Caffeine, caffeine]",0.55 ± 0.09,0.55 ± 0.23,3.62 ± 1.75%,3.11 ± 2.33%

# Same assay, conditions: sum of epidermis, dermis and receptor fluid; finite dose 20 µL, 24 h
row,% API total permeation (Perm) [%],SMILES
1,58.39 ± 6.32,"CC(C)Cc1ccc(C(C)C(=O)O)cc1 (stereo not drawn) [Ibuprofen, ibuprofen]"
2,15.49 ± 6.89,O=C(O)Cc1ccccc1Nc1c(Cl)cccc1Cl [Diclofenac sodium]

row,SMILES,% API total permeation (Perm) [%]
1,"Cn1c(=O)c2c(ncn2C)n(C)c1=O [Caffeine, caffeine]",4.72 ± 1.87

# Test: Kinetic permeation assay with infinite dosage using vertical Franz diffusion cells
# Assay type: in vitro ADME, pig
# Conditions: female, white/landrace, pig; infinite dose 300 µL in propylene glycol (DS 3%, IBU 1%, LIDO 2%, CAF 1% w/v), mean ± SD, n = 3; read-out: Kp (permeability coefficient) (converted)
# Method: as §1
# The kinetic diffusion assay was conducted using a Vision Microette (Vision G2 V14.1) with an Autosampler and an Autofill Collector (Hanson Research, Chatworths, CA, USA) automated vertical diffusion cell (7 mL acceptor chamber, and surface area of application of 1.77 cm^2).
# The receptor fluid (RF) used was aqueous buffer solution of PBS in the case of DS, IBU, and CAF, and NaH2PO4 (0.05 M, pH = 7) in the case of LIDO. Receptor fluid was continuously stirred with magnetic beads at 700 rpm to keep the contents of the receptor chamber homogenous. The system was thermostatted at 43 ± 1 °C to provide a skin surface temperature of 32 ± 1 °C.
# Once TEWL was measured, 300 μL (infinite dose) of the four active solutions was applied in triplicate to each Franz cell (Hanson Research, Chatworths, CA, USA) and donor compartment was sealed to donor chamber to avoid evaporation. Samples (700 µL) were collected at specific times (15 min, 30 min, 1 h, 2 h, 4 h, 6 h, 10 h, 20 h, and 30 h), and automatically passed into the corresponding vial. The same volume of receptor fluid was automatically replaced with fresh solution at each sampling. The content of receptor samples was diluted in 2 mL graduated flasks and filtered with a 0.45 µm nylon filter (Cameo, Sigma-Aldrich, St Louis, MO, USA) previous analyzed with a high-performance liquid chromatography-diode array detector (HPLC-DAD) (Section […]). The kinetics of penetration were determined, simulating the drug elimination in the body.
# The cumulative amount of the active pharmaceutical ingredient (API) per surface area (Qn, µg/cm^2) was obtained for each replicate cell to calculate the release of the four APIs. The equation used to determine the cumulative amount of API in the receptor fluid was the following Equation (1):(1) Qn= Cn×Vc+ ∑i=1n−1Ci×Vs/A where Qn is the cumulative amount of API released at time n (μg/cm^2); Cn is the concentration of active ingredient in the sample (μg/mL); Vc is the volume of the vertical diffusion cell; ∑i=1n−1 Ci is the sum of the concentrations of API (µg/mL) determined at sampling intervals 1 through n − 1; Vs is the sample volume and A is the surface area of the sample.
# The percentage of cumulative amount of API permeated over time was calculated by the following Equation (2):(2) % Release API= Qn/Total amount of API applied×100
# Experimental data of cumulative amount (Qn and % Release API) were plotted versus time or its square root ( t ) to obtain the API absorption and penetration kinetics. Different mathematical model (Zero-order, First-order and Higuchi) were evaluated with the non-linear regression software STATGRAPHICS plus 5 (Statgraphics Technologies, Inc., The Plains, VA, USA). The best-fitting model was selected according to the highest correlation coefficient value (r^2) and it was possible to calculate other parameters, such as flux (J), the permeability coefficient (Kp), lag time (Tl), the maximum concentration (Cmax), the maximum time (tmax), and the area under the curve (AUC).
row,Papp [×10⁻⁶ cm/s],SMILES
1,0.0694,"CC(C)Cc1ccc(C(C)C(=O)O)cc1 (stereo not drawn) [Ibuprofen, ibuprofen]"
2,0.0442,O=C(O)Cc1ccccc1Nc1c(Cl)cccc1Cl [Diclofenac sodium]

row,SMILES,Papp [×10⁻⁶ cm/s]
1,"Cn1c(=O)c2c(ncn2C)n(C)c1=O [Caffeine, caffeine]",0.0242

# Same assay, conditions: female, white/landrace, pig; receptor fluid, infinite dose 300 µL in propylene glycol (DS 3%, IBU 1%, LIDO 2%, CAF 1% w/v), mean ± SD; read-out: AUC (area under the curve)
row,AUC [µg·h/mL],SMILES
1,163 ± 28.3,"CC(C)Cc1ccc(C(C)C(=O)O)cc1 (stereo not drawn) [Ibuprofen, ibuprofen]"
2,168 ± 38.5,O=C(O)Cc1ccccc1Nc1c(Cl)cccc1Cl [Diclofenac sodium]

row,SMILES,AUC [µg·h/mL]
1,"Cn1c(=O)c2c(ncn2C)n(C)c1=O [Caffeine, caffeine]",72.8 ± 32.6

# Same assay, conditions: female, white/landrace, pig; receptor fluid, infinite dose 300 µL in propylene glycol (DS 3%, IBU 1%, LIDO 2%, CAF 1% w/v), mean ± SD; read-out: Cmax (maximum concentration)
row,Cmax [ng/mL],SMILES
1,66700 ± 16100,"CC(C)Cc1ccc(C(C)C(=O)O)cc1 (stereo not drawn) [Ibuprofen, ibuprofen]"
2,38100 ± 10000,O=C(O)Cc1ccccc1Nc1c(Cl)cccc1Cl [Diclofenac sodium]

row,SMILES,Cmax [ng/mL]
1,"Cn1c(=O)c2c(ncn2C)n(C)c1=O [Caffeine, caffeine]",13900 ± 1590

# Same assay, conditions: infinite dose 300 µL in propylene glycol (DS 3%, IBU 1%, LIDO 2%, CAF 1% w/v), mean ± SD, n = 3
row,J (flux) [µg/cm^2/h],SMILES
1,2.60 ± 0.69,"CC(C)Cc1ccc(C(C)C(=O)O)cc1 (stereo not drawn) [Ibuprofen, ibuprofen]"
2,3.94 ± 0.77,O=C(O)Cc1ccccc1Nc1c(Cl)cccc1Cl [Diclofenac sodium]

row,SMILES,J (flux) [µg/cm^2/h]
1,"Cn1c(=O)c2c(ncn2C)n(C)c1=O [Caffeine, caffeine]",0.86 ± 0.07

# Same assay, conditions: infinite dose 300 µL in propylene glycol (DS 3%, IBU 1%, LIDO 2%, CAF 1% w/v), up to 30 h
row,Kin. of release (best-fitting kinetic model),SMILES
1,Ord 0,"CC(C)Cc1ccc(C(C)C(=O)O)cc1 (stereo not drawn) [Ibuprofen, ibuprofen]"
2,Ord 0,O=C(O)Cc1ccccc1Nc1c(Cl)cccc1Cl [Diclofenac sodium]

row,SMILES,Kin. of release (best-fitting kinetic model)
1,"Cn1c(=O)c2c(ncn2C)n(C)c1=O [Caffeine, caffeine]",Ord 0

# Same assay, conditions: percentage release, infinite dose 300 µL in propylene glycol (DS 3%, IBU 1%, LIDO 2%, CAF 1% w/v), mean ± SD
row,AUC (%),SMILES
1,38.97 ± 4.56,"CC(C)Cc1ccc(C(C)C(=O)O)cc1 (stereo not drawn) [Ibuprofen, ibuprofen]"
2,15.43 ± 4.41,O=C(O)Cc1ccccc1Nc1c(Cl)cccc1Cl [Diclofenac sodium]

row,SMILES,AUC (%)
1,"Cn1c(=O)c2c(ncn2C)n(C)c1=O [Caffeine, caffeine]",4.55 ± 3.31
